Test results published in patent US6001359A, “Diagnosis of colon carcinoma using monoclonal antibodies to human influx peptide transporter” (Eli Lilly and Company, priority 1997, dated 1999).

What was measured:
[1] = biological target: T1, influx peptide transporter (Homo sapiens, UniProt Q12864); test: [14C]cephalexin uptake by CHO-K1 transfectant Clone 9 (plasmid pPSJ179); type: cell-based
T1 construct: about 120 kDa antigen of MAb PTC13G6
T1 sequence (Q12864 23-832): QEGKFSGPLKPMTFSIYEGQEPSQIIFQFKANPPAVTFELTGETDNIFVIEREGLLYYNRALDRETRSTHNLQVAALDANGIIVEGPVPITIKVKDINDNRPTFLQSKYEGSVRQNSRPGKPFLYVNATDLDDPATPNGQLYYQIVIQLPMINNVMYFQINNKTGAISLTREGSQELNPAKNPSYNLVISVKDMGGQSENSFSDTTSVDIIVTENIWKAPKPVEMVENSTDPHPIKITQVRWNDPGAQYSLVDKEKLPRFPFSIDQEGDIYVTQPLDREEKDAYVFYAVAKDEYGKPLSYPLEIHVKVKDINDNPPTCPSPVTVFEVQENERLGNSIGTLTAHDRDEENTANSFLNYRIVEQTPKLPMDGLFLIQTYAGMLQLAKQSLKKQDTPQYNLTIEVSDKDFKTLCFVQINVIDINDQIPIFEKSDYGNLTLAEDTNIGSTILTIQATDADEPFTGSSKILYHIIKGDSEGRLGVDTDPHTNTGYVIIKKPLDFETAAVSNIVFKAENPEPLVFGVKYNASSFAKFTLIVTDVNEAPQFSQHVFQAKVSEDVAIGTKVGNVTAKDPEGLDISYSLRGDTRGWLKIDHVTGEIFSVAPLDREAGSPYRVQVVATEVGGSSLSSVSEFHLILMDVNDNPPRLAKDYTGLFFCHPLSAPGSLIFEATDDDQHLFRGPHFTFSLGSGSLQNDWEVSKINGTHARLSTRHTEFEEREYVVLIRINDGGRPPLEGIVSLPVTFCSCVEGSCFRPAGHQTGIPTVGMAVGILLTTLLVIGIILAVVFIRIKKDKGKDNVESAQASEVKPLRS
Method: (§1) The samples were incubated at room temperature for 20 minutes.

CHO-K1 cells = test: [14C]cephalexin uptake by control CHO-K1 cells (plasmid pRc/RSV); type: cell-based, Chinese hamster
Method: as §1

[14C]-Cephalexin Uptake in presence of bestatin ([1]; 1 mM [14C]cephalexin + 15 mM bestatin): 0.42 ± 0.08 nmol/mg total cell protein
effect on uptake of 1 mM cephalexin by the transfectant ([1]; 15 mM bestatin or 25 mM unlabelled cephalexin): inhibited
Compound: CC(C)C[C@H](NC(=O)[C@@H](O)[C@H](N)Cc1ccccc1)C(=O)O [bestatin]
drug uptake on coincubation, compared with control cells ([1]; coincubation with 1 mM [14C]cephalexin): decreased drug uptake in the representative transfectant (Clone 9) to the level of the control cells
[14C]-Cephalexin Uptake in presence of bestatin (CHO-K1 cells; Control cells, 1 mM [14C]cephalexin + 15 mM bestatin): 0.38 ± 0.08 nmol/mg total cell protein
effect on transport of 1 mM [14C]cephalexin by the control cells (CHO-K1 cells; control cells, bestatin or cephalexin): not inhibited significantly
